Blank lines part the entries; values can stand above or below the molecule they belong to.
Legend:
[1] = test system: RBCs from a patient with PNH; assay: modified Ham's test with flow cytometry for CD59 and C3d (Example 18); assay type: cell-based, human; settings: for % C′3 (Type I) / % C′3 (Type II) / % C′3 (Type III): cells positive for C3 loading
Method: A modified Ham's test was performed to assess the ability of compstatin analogs to protect PNH RBCs from complement-mediated lysis. […] Exposure to heat inactivated human serum was used as a control representing no significant complement-mediated lysis as complement is inactivated by heat. Exposure to acidified human serum and magnesium (Mg^2+) in the absence of complement inhibitors (pane labeled Mg^2+) was used as a control representing maximum lysis.
Following incubation, cells were stained with antibodies to CD59 and C3d. Cd59 level permitted the classification of the PNH RBCs as Type I, Type II, or Type III. Staining for C3d, a product of C3 activation and cleavage was used as a marker of C3 and C3 activation product deposition (loading). Flow cytometric analysis was performed to assess CD59 and C3d on RBC surfaces and to quantify the percentages of Type I, Type II, and Type III cells present in various samples.
Type I cells (shown in orange in FIG. 12) have normal levels of CD59. Type III cells (shown in blue in FIG. 12) have essentially no detectable CD59. […] Type II cells (shown in purple in FIG. 12) have reduced levels of CD59 as compared with normal or Type I cells and have an intermediate sensitivity to complement-mediated lysis. […] Reduction in or absence of lysis may be evidenced by increased levels of C3 or C3 activation products on Type II cells, as is evident by comparing the level of C3d on Type II cells in the no lysis panel with the level of C3d on Type II cells in the max. lysis panel in both FIGS. 12(A) and 12(B). […] A shift in the relative percentages of Type I, II, and III cells from the percentages present in the max. lysis control panels (Mg^2+) towards the percentages present in the no lysis control panels (heat inactivated serum) is indicative of protection against complement-mediated lysis. The column labeled % C′3 in Table 11 refers to the percentage of cells deemed “positive” for presence of C3 and C3 activation products (“C3 loading”).

[2] = test system: complement activation via the classical pathway; assay: classical complement inhibition assay (C3b deposition ELISA); assay type: biochemical, Human
Method: Inhibitory activity of the synthesized compounds was assessed by measuring the effect of the compounds on complement activation via the classical pathway using a standard complement inhibition assay. The protocol measures C3b deposition in an ELISA format. C3b deposition monitored using this method is generated through complement activated by the classical pathway. Briefly, 96-well plates are coated with BSA. Human plasma, chicken ovalbumin (OVA), polyclonal anti-OVA antibodies and compound being tested (referred to as “drug”) are added and incubated, followed by addition of Anti-human C3 HRP-conjugated antibody. After an additional incubation, substrate is added and signal detected. Details of the protocol are as follows:
Protocol for Classical Complement Inhibition Assay
• Ninety-six well plate (polystyrene plate, Thermo Scientific, 9205) • Chicken OVA (Sigma A5503-5G) • Rabbit anti-chicken OVA (Abcam ab1221) • Blocking buffer (Startingblock buffer, Thermo Scientific 37538) • Veronal Buffer (5× concentration, Lonza 12-624E) • Human plasma (collected with Lepirudin at 50 ug/ml final concentration) • Goat anti-human C3 HRP-conjugated Ab (MP Biomedicals, 55237) • Tween-20 Wash Buffer (0.05% Tween 20-PBS buffer) • TMB (Peroxidase substrate, BD 555214)—1:1 mixture of BD 51-2607KC and 51-2606KC. • 1M H2SO4
• 1. […] Read the plate at 450 nm
Data was analyzed using GraphPad Prism5 software. […]

PNH RBCs = assay: modified Ham's assay, comparison with Soliris (Example 19); assay type: cell-based, human; settings: CA28-2GS-BF at 50 ug/ml
Method: Flow cytometry was performed after antibody staining using antibodies against CD59 and C3d. In this figure, quadrant 1 (Q1) and quadrant 3 (Q3) represent Type III cells. Quadrant 2 (Q2) and quadrant 4 (Q4) represent Types I and II cells. Q1 and Q2 represent cells with a significant and abnormally high amount of C3 activation product (e.g., C3d) deposition.

[3] = test system: complement activation (alternative pathway); settings: WO2004/026328; cited from earlier work
[4] = biological target: T1, complement component C3 (human) (human, UniProt P01024 23-1663); assay: cell-based or functional assay
[5] = biological target: T1, complement component C3 (human); assay: cell-based or functional assay; remark: listed apart in the source
[6] = biological target: T1, complement component C3 (human); assay: cell-based or functional assay; remark: listed apart in the source

Molecule: CA28-2GS-BF: two CA28-AEEAc-Lys moieties coupled to bifunctional linear 40 kD PEG, NHS-OCO(CH2)3COO-PEG-CO(CH2)3COO-NHS
C3 loading on PNH red cells ([1]; at 100 micrograms/ml compound or higher concentrations): virtually no C3 loading
Type III % ([1]; compound at 20 micrograms/ml): 19.19%
% C′3 (Type I) ([1]; compound at 20 micrograms/ml): 2.18%
% C′3 (Type II) ([1]; compound at 20 micrograms/ml): 12.28%
% C′3 (Type III) ([1]; compound at 20 micrograms/ml): 0.99%
% C′3 (Type I) ([1]; compound at 40 micrograms/ml): 2.84%
% C′3 (Type III) ([1]; compound at 40 micrograms/ml): 1.21%
Type III % ([1]; compound at 50 micrograms/ml): 13.87%
% C′3 (Type I) ([1]; compound at 50 micrograms/ml): 2.28%
% C′3 (Type III) ([1]; compound at 50 micrograms/ml): 1.29%
% C′3 (Type I) ([1]; compound at 60 micrograms/ml): 2.05%
% C′3 (Type II) ([1]; compound at 60 micrograms/ml): 13.04%
% C′3 (Type III) ([1]; compound at 60 micrograms/ml): 1.44%
Type II % ([1]; compound at 100 micrograms/ml): 53.93%
% C′3 (Type I) ([1]; compound at 100 micrograms/ml): 0.07%
% C′3 (Type II) ([1]; compound at 100 micrograms/ml): 0.88%
% C′3 (Type III) ([1]; compound at 100 micrograms/ml): 0.11%
Type II % ([1]; compound at 200 micrograms/ml): 51.99%
% C′3 (Type I) ([1]; compound at 200 micrograms/ml): 0.02%
% C′3 (Type II) ([1]; compound at 200 micrograms/ml): 0.26%
% C′3 (Type III) ([1]; compound at 200 micrograms/ml): 0.02%
Type II % ([1]; compound at 500 micrograms/ml): 51.87%
Type III % ([1]; compound at 500 micrograms/ml): 37.87%
% C′3 (Type I) ([1]; compound at 500 micrograms/ml): 0.04%
% C′3 (Type II) ([1]; compound at 500 micrograms/ml): 0.3%
% C′3 (Type III) ([1]; compound at 500 micrograms/ml): 0.05%
activity per compstatin analog (peptide) moiety compared with CA28 [2]: less than the activity of an individual CA28 molecule
complement inhibiting activity compared with CA28 on a molar basis [2]: virtually identical
Q1 # Events (PNH RBCs; Q1 = Type III cells with abnormally high C3d deposition): 23
Q3 # Events (PNH RBCs; Q3 = Type III cells without significant C3d deposition): 153,187
Q4 # Events (PNH RBCs; Q4 = Types I and II cells without significant C3d deposition): 95,713
deposition of C3d / C3 activation products on PNH RBCs (PNH RBCs; activated complement): essentially no deposition of C3d

Molecule: CC[C@H](C)[C@H](N)C(=O)N[C@H]1CSSC[C@@H](C(=O)N[C@H](C(N)=O)[C@@H](C)O)NC(=O)[C@H](CCCN=C(N)N)NC(=O)[C@H](Cc2cnc[nH]2)NC(=O)[C@H](Cc2cnc[nH]2)NC(=O)CNC(=O)[C@H](Cc2c[nH]c3ccccc23)NC(=O)[C@H](CC(=O)O)NC(=O)[C@H](CCC(N)=O)NC(=O)[C@H](C(C)C)NC(=O)[C@H](C(C)C)NC1=O [Compstatin]
IC50 [3]: 12000 nM

IC50 (read off the curve); alternative pathway complement activation (LPS-coated plate, C3b deposition ELISA, human plasma) [B] [4]: ~400 nM
B1: CA28-2TS-BF (bifunctionalized PEG-based compstatin analog, TS type) (peptide)
peptide: ICVWQDWGAHRCTK
modifications: N-terminal acetyl; 1-methyl-tryptophan at position 4; disulfide Cys2-Cys12; AEEAc linker after Thr13; Lys side chain coupled through a carbamate to one end of a bifunctional linear 40 kD PEG (TS type); C-terminal amide

IC50, classical complement inhibition assay (C3b deposition ELISA), as a function of CA28 concentration [5]: 1930 nM
IC50 on a molar basis, classical complement inhibition assay [6]: ~260 nM
B2: (CA28-AEEAc)8-PEG40k (peptide)
peptide: ICVWQDWGAHRCTK
modifications: N-terminal acetyl; 1-methyl-tryptophan at position 4; disulfide Cys2-Cys12; AEEAc linker after Thr13; Lys side chain coupled to one arm of an eight-arm 40 kD PEG (NOF HGEO-400GS); C-terminal amide

— patent publication US20160194359A1, “CELL-REACTIVE, LONG-ACTING, OR TARGETED COMPSTATIN ANALOGS AND RELATED COMPOSITIONS AND METHODS” (APELLIS PHARMACEUTICALS, INC., priority 2012, published 2016)
